Experimental data reported in US11285180B2, “Methods of enhancing the potency of incretin-based drugs in subjects in need thereof” (INSERM (INSTITUT NATIONAL DE LA SANTE ET DE LA RECHERCHE …, priority 2016, dated 2022).

What was measured:
[1] = test system: gastric emptying; assay: GLP-1 regulated gastric emptying (oral acetaminophen, plasma acetaminophen); assay type: in vivo, mice
Protocol: (§1) To evaluate GLP-1 sensitivity three GLP-1 regulated parameters were quantified: insulin secretion, gastric emptying, and food intake. To prevent from the degradation of exogenous GLP-1 a DPP4 inhibitor (400 μg/mouse sitagliptin) was given orally 30 min before the GLP-1 challenge.
For gastric emptying the glucose challenge was replaced by an oral administration of acetaminophen (SIGMA-Aldrich, […]). The plasma acetaminophen concentrations were assessed by colorimetric-based assay (SEKISUI diagnostics, Canada) in the plasma from tail blood during 15 min.
(§2) Thirty minutes before all 3 GLP-1 challenge procedures, a NO synthase (NOS) inhibitor (L-NAME, Abcam) was administered i.p. at doses of 0, 50, 100, 200 μg/kg. In a different set of mice, a NO donor (L-Arginine, 1 g/kg, Sigma-Aldrich) was administered orally in the presence or absence of the GLP-1r antagonist, Exendin 9 (1 nmol/mice, 100 μL, i.p. injection, Bachem). To study the chronic effect of L-arginine in GLP-1 sensitivity, the molecule (0.5 g/kg, 300 μL, lgavage/day) was administered for one week.

[2] = test system: GLP-1-induced insulin secretion; assay: In vivo GLP-1 stimulated insulin secretion (i.p. GLP-1, then i.v. glucose challenge); design: species or system mice
Protocol: as §1
Since GLP-1 insulinotropic effect is glucose dependent we first assessed in vivo GLP-1 stimulated insulin secretion in hyperglycemic conditions. The mice were first fasted for 6 h before the GLP-1 and glucose challenges. Active GLP-17-36 (BACHEM, Switzerland) was then administered intraperitoneally at different doses (0, 2.2, 7, 20, 63 nmol/kg, diluted in distilled water) 5 min before the glucose challenge. In some sets of experiments a single active dose of 7 nmol/kg was tested. To induce hyperglycemic conditions a retrorbital i.v. glucose (1 g/kg) injection was realised. This procedure avoids the confounding effect of the oral glucose-induced gut-secreted GLP-1. Blood (30 μl) was collected from the tail vein 15 min after glucose challenge. Plasma insulin concentration was determined.
The dose-response curve was calculated by curve interpolation with 4-Parameter Logistic (4PL) sigmoidal model using GraphPad Prism version 6.00 for Mac (GraphPad Software, San Diego, Calif., USA; www.graphpad.com) and the ECso calculated.
as §2

[3] = test system: insulin secretion; assay: Oral glucose-induced insulin secretion after oral NO donor; assay type: in vivo, mice
Protocol: To identify oral glucose-induced insulin and GLP-1 secretions, all sets of mice were gavaged with glucose (2 g/kg). After 15 min, 30 μl of blood from the tip of the tail vein were sampled to assess plasma insulin concentration. 300 μl of portal vein blood were collected following an intravenous (i.v.) administration of a Ketamin (10 mg/kg)/Xylasin (1 mg/kg), to ensure an immediate anesthesia of the mice. This procedure allows performing portal vein blood sampling since it dramatically minimizes the impact of anesthesia on blood parameters. In addition, to prevent from the in vivo degradation of GLP-1 by DPP4, a DPP4 inhibitor (400 μg/mouse sitagliptin, MSD Rahway, N.J.) was administered orally 30 min before the oral gavage with glucose. Eventually, the portal blood was collected in the presence of protease inhibitors diprotin A (1 mM), aprotinin (0.2 μM) and EDTA (1 mM). Plasma hormones were assessed by ELISA (insulin, Mercodia; active GLP-17-36, Alpco). A GLP-1 resistance index for each mice was calculated from glucose, insulin and GLP-1 concentrations 15 min after the oral glucose load. Since the insulinotropic activity of GLP-1 depends upon the glycemic level we set the following equation: Glucose x GLP-1 concentrations/insulin concentration. In some experiments, distal ileum and left nodose ganglion were harvested from mice.
as §2

[4] = test system: meal-induced insulin secretion; conditions: administered orally; healthy, type II diabetic patients, and diabetic mice; cited from earlier work
[5] = test system: food intake; assay: GLP-1 regulated food intake (30 min after 16-hour fast); assay type: in vivo, mice
Protocol: as §1
Food intake was recorded for 30 min following a 16-hour period of fast.
as §2

[6] = test system: distal ileum segment; assay: Ex vivo ileal real-time NO measurement; design: species or system mice
Protocol: The distal ileum segment from fed mice were washed in Krebs-Ringer bicarbonate/glucose buffer (pH 7.4) in an atmosphere containing 95% O2—5% CO2 and then immersed in Eppendorf tubes containing 400 μL of the same medium. After a 10 min recovery period, the spontaneous NO release in response to 10 μL of Krebs-Ringer solution (control), GLP-1 (150 nM) and/or Exendin 9 (375 nM) was measured at 37° C. for 10 min using a NO-specific amperometric probe (ISO-NOPF, […], 5 mm length, World Precision Instruments, Aston Stevenage, UK) implanted directly in the ileum. Data are expressed (Fournel et al., 2015).

[7] = test system: primary enteric neurons; assay: GLP-1-induced NO production in primary cultures of enteric neurons (DAF-FM); assay type: cell-based, mice
Protocol: The protocol was adapted from Smith and colleagues (Smith et al., 2013). The ileum (last 9 cm) was harvested and kept in ice cold-carbogen bubbled-Krebs solution. The tissue was cut into 3 cm slices and kept on plastic rod. An incision was realized with a forceps where the mesentery was attached. The outer layers containing muscular cells and myenteric neurons (LMMP) were obtained by moving from top to bottom, along the gap. The LMMP were digested with collagenase II (1.3 mg/mL, Worthington) and BSA (0.3 mg/mL) in Krebs solution bubbled with carbogen 30 min in a 37° C. shaking bath. Digested cells were transferred in Hank Balanced salt Solution (HBSS)/trypsin solution (0.05%) 7 min in a 37° C. shaking bath. […]
Primary enteric neurons were grown for 7 days in culture. […] The fluorescence was measured on confocal Zeiss Laser Scanning Microscope LSM-780 equipped with 63×/1.4 NA oil immersion objective and a GaAsP detector with quantum yield of 45% with Black Zen software and analysed with Image J software. A region of interest (ROI) corresponding to identified nNOS positive cells was defined from where the DAF-FM or nNOS fluorescence mean per ROI was measured. The ratio of both values for each ROI was then calculated.

[8] = test system: cFos positive cells in the brain stem (NTS-DMNX); assay: c-FOS immunostaining in the brain stem after GLP-1; assay type: in vivo, mice
Protocol: Brain was removed and kept on PFA 4% overnight at 4° C. After washing in cold citrate buffer for 6 h, brain was warmed until boiling, washed in PBS, cooled to 4° C., then immersed in cold sucrose solutions (10% then 30% in PBS). After freezing on dry ice, the brain was stored at −80° C. and cut into 20 μm thick slices (cryostat, Thermo). The slices were washed 3 times with PBS, blocked with PBS, 0.3% Triton X100, 2% donkey serum and incubated with the c-fos antibody diluted in the same solution ( 1/10000, Santa Cruz) overnight at RT. After 16 h, the brain slices were washed 3 times with PBS and incubated with biotinylated antibody ( 1/2000, Jackson ImmunoResearch) diluted in the PBST solution (PBS, 0.3% Triton X100) for 1 h at RT. Brain slices were washed 3 times in PBS and incubated with the reagent A (avidin) and B (biotinylated enzyme) from Vectastain Elite ABC kit (Vector Laboratories) diluted in the PBST solution, 30 min at RT. Then, brain slices were washed 3 times in PBS and incubated with biotinylated tyramine solution (tyramine and biotin diluted in borate buffer/3% H2O2, pH=8.4), 20 min at RT. […] The fluorescence was analysed as above. We identified the Nucleus Tractus Solitary NTS and dorsal motor nucleus of vagus nerve DMNX area using a mouse brain atlas (Franklin and Paxinos, 1997) and we counted the number of cFOS positive cells/area corresponding to the NTS-DMNX.

[9] = L-NAME i.p. 30 min before GLP-1 challenge

What does the source list for `N=C(N)NCCC[C@H](N)C(=O)O` [L-Arginine]?
gastric emptying ([1]; HFD diabetic mice, NO-donor treatment): could also improve; gastric emptying inhibition ([1]; oral NO donor, through the GLP-1r): can induce gastric emptying inhibition; GLP-1-induced insulin secretion (GLP-1 sensitivity) ([2]; HFD diabetic mice, chronic NO-donor treatment (1 week)): enhanced; insulin secretion ([3]; HFD GLP-1 resistant diabetic mice, oral and acute administration): improved insulin secretion; insulin secretion after oral glucose challenge ([3]; NCD-fed mice, oral and acute treatment): induced insulin secretion; meal-induced insulin secretion [4]: improves

For `COC(=O)[C@@H](N)CCCNC(=N)N[N+](=O)[O-]` [L-NAME], which “effect on GLP-1-induced gastric emptying inhibition” value [1, 9] is on record?
The value was “altered”.

What about the “effect on GLP-1-induced insulin secretion” value ([2]; NCD mice, L-NAME i.p. 30 min before GLP-1 challenge) of the same compound?
Its value is “partially reduced”.

What about the “effect on GLP-1-induced food intake inhibition” value [5, 9] of the same compound?
Its value is “but not GLP-1-induced food intake inhibition”.

What does the source list for Exendin 9?
effect on GLP-1 induced NO production ([6]; ileum segments, Exendin 9 with GLP-1): prevented GLP-1 induced NO production; effect of co-treatment on L-Arginine-increased insulin secretion ([3]; NCD-fed mice, co-treatment with L-Arginine): prevented the effect of GLP-1

Which results are given for “GLP-1: Active GLP-1 7-36 (BACHEM), insulinotropic hormone, GLP-1 receptor agonist”?
GLP-1-induced NO production ([7]; enteric neurons from HFD-fed mice versus NCD): dramatically resistant; NO production by enteric neurons stimulated by GLP-1 ([7]; enteric neurons from germ free mice): could not be stimulated; GLP-1-induced NO production ex vivo from ileum segments ([6]; HFD-fed GLP-1 resistant mice): totally blunted; GLP-1-induced NO production ex vivo from ileum segments ([6]; NCD versus HC-HFD-fed GLP-1 sensitive mice): similar; number of cFos positive neurons in response to GLP-1 ([8]; NCD mice, GLP-1 7 nmol/kg): increases; number of cFos positive cells in the brain stem after GLP-1 administration ([8]; germ free mice): could not be increased; gastric emptying ([1]; NOD2, CD14 and TLR4 KO mice): impaired; GLP-1 effect on gastric emptying ([1]; SDVx-operated NCD-fed mice): induces GLP-1 resistance to gastric emptying; plasma concentrations of acetaminophen after GLP-1 administration (gastric emptying) ([1]; both fat-enriched diet-fed mice (HC-HFD, HFD)): remained elevated; EC50 of GLP-1-induced insulin secretion (fold change dose-response) ([2]; HC-HFD mice compared to NCD mice): doubled; EC50 of GLP-1-induced insulin secretion (fold change dose-response) ([2]; HFD-fed lean diabetic mice compared to NCD mice): dramatically increased; dose of GLP-1 reaching the maximal insulin secretion ([2]; NCD and HC-HFD-fed mice, GLP-1 i.p., plasma insulin 15 min after i.v. glucose): 7 nmol/kg; GLP-1-induced insulin secretion ([2]; NCD-fed subdiaphragmatic vagotomy (SDVx) mice, GLP-1 7 nmol/kg): reduced; GLP-1-induced insulin secretion ([2]; NOD2, CD14 and TLR4 KO mice compared to wild type controls): dramatically reduced; GLP-1-induced insulin secretion ([2]; germ free mice): prevented; energy intake with increasing doses of GLP-1 ([5]; HFD-fed lean diabetic mice compared to NCD-fed mice): only modestly reduced; food intake ([5]; NOD2, CD14 and TLR4 KO mice): remained unchanged; energy intake after GLP-1 administration ([5]; sham versus SDVx-operated mice): similar
